Assay results reported in patent publication US5591758A, “Organic nitrates, processes for their preparation and their use in the treatment of cardiovascular diseases” (Laboratoires Hoechst, SA, priority 1991, dated 1997).
Where a name gives a salt, the structure may show the parent alone.

Columns and labels:
anesthetised dogs = assay: Haemodynamic effects on anesthetised dogs; format: in vivo, dogs (labrador/harrier cross)
Procedure: Haemodynamic effects of the compounds according to the invention on anesthetised pigs or dogs
The dogs, weighing between 16 and 26 kg, are the progeny of a labrador/harrier cross.
In the case of dogs the anesthesia is induced by sodium pentobarbitol (45 mg/jg i.v.) and maintained with an i.v. perfusion (flow rate of 8 mg/kg/h).
The pigs or dogs are placed under artificial respiration in ambient air. Analysis of the blood gases (pO2, pCO2) is carried out at regular intervals and oxygen can be supplied via the respirator, if necessary.
The haemodynamic parameters recorded include the left ventricular pressure (LVP; Millar PC350 Tip catheter inserted via the carotid artery), systemic blood pressure (BPs, BPd; full catheter in a femoral artery), the end pressure of the left ventricular diastole (LVEDP), the ventricular contractility (LVPdp/dtmax) and the heart rate (HR).
Following an equilibration period of the order of 45 minutes, the compounds studied are administered intraduodenally (i.d.) or intraveinously (i.v.) to several animals (1 to 4). The haemodynamic variables are recorded continuously for 1 to 3 hours, as a function of the period of action of the compound.
The effects of the compounds studied are shown as the absolute difference with respect to the base value (bv) measured before administration of the compounds and are shown in Table VII (a,b,c).
An antianginal activity is estimated by a fall in the BPs and the LVEDP (fall in venous return).

thoracic aorta = assay: Vasorelaxant effect on isolated vessels (rat thoracic aorta rings without endothelium, precontracted with noradrenalin); parameters: species or system Wistar rats; conditions: for Emax: Rattus norvegicus, maximum inhibition of noradrenalin effect, 10^-8 to 10^-4 M substance, read-out: Maximum Relaxation; for IC50: rat aorta, 10^-7 M noradrenalin contraction
Procedure: Vasorelaxant effect of the compounds according to the invention on isolated vessels.
Adult Wistar rats weighing between 250 and 350 g are anaesthetised by intraperitoneal injection of sodium pentobarbital (30 mg/kg). The thoracic aorta is rapidly removed and placed in a refrigerated and oxygenated solution of bicarbonate buffer of the Krebs-Ringer type (composition [mM]: NaCl, 118; KCl, 4.7; CaCl2, 2.5; MgSO4, 1.2; KH2 PO4, 1.2; NaHCO3, 25.0; disodium calcium salt of EDTA, 0.026; glucose 11.1). The aorta is dissected with the aim of removing the connective tissue and then cut into 6 rings (length 5-10 mm). The endothelium is removed by moderate abrasion of the intimal surface of the aortic segments with the aid of a pair of tweezers. These segments are then placed between two hooks in an isolated organ cell filled with 25 ml of bicarbonate buffer (pH 7.4), thermostat-controlled at 37° C. and oxygenated with the aid of a 95% O2 /5% CO2 mixture (pH 7.4). One of the hooks is fixed to a fixed point, while the second is connected to a transducer with the aim of measuring the variations in isometric voltage (expressed in grams). After an equilibration period of 30 min., the segments are progressively withdrawn so as to attain the level of base voltage for which the contractor response to noradrenalin (10^-7 M) is maximum (optimum voltage; average 2 g). The absence of endothelium is verified by addition of a single concentration of acetylcholine (10^-6 M), after precontraction of the vessels by noradrenalin (10^-7 M). The integrity of the vascular smooth muscle is also verified by adding a single concentration of a vasodilator whose response is independent of the presence of the endothelium, SIN-1 (10^-5 M). After this initial procedure, the aortas are washed, equilibrated for a period of 30 min and then recontracted (10^-7 M noradrenalin). The relaxant effect of the substance to be tested is then evaluated by adding increasing concentrations of this substance (from 10^-8 to 10^-4 M). The maximum inhibition of the concentration caused by noradrenalin (expressed as a percentage) is then calculated ("maximum relaxation"). When this maximum relaxation is greater than 50%, the concentration of substance tested producing a 50% inhibition of the maximum contraction (IC50) is calculated. Table V below collates the IC50 and the maximum relaxation percentages for the various compounds tested.

SMILES | IC50 (thoracic aorta) [µM] | BPs (min), period of action (anesthetised dogs; dogs, 3 mg/kg i.v.) [min] | BPs, difference to base value (anesthetised dogs; dogs, 3 mg/kg i.v.) [mmHg] | LVEDP (min), period of action (anesthetised dogs; dogs, 3 mg/kg i.v.) [min] | LVEDP, difference to base value (anesthetised dogs; dogs, 3 mg/kg i.v.) | Emax (thoracic aorta) [%] | BPs (min), period of action (anesthetised dogs; dogs, 3 mg/kg i.d.) [min] | BPs, difference to base value (anesthetised dogs; dogs, 3 mg/kg i.d.) [mmHg] | other results
C[C@H](NC(=O)OC(C)(C)C)C(=O)N[C@H]1CO[C@H]2[C@@H]1OC[C@@H]2O[N+](=O)[O-] [Compound 7, N-[(t-Butoxy)carbonyl]-L-alanine amide of 5-amino-5-deoxy-2-O-nitro-1,4:3,6-dianhydro-L-iditol] | 17 | > 90 | -20 | > 90 | -2,0 mmHg | 96 |  |  | 
C[C@H](N)C(=O)N[C@H]1CO[C@H]2[C@@H]1OC[C@@H]2O[N+](=O)[O-] [Compound 8, L-Alanine amide of 5-amino-5-deoxy-2-O-nitro-1,4:3,6-dianhydro-L-iditol monohydrochloride] | 32 |  |  |  |  | 80 | > 150 | -30 | 
CC(C)(C)OC(=O)N1CSC[C@H]1C(=O)O[C@H]1CO[C@H]2[C@@H]1OC[C@H]2O[N+](=O)[O-] [Compound 18, 2-O-[(3-t-Butoxycarbonyl-4-L-thiazolidinyl)carbonyl]-5-O-nitro-1,4:3,6-dianhydro-D-glucitol] | 72 |  |  |  |  | 75 |  |  | BPs (min), period of action (anesthetised dogs; dogs, 10 mg/kg i.v.): > 30 min; BPs, difference to base value (anesthetised dogs; dogs, 10 mg/kg i.v.): -10 mmHg; LVEDP (min), period of action (anesthetised dogs; dogs, 10 mg/kg i.v.): > 30 min; LVEDP, difference to base value (anesthetised dogs; dogs, 10 mg/kg i.v.): 3,0 mmHg
O=C(O[C@H]1CO[C@H]2[C@@H]1OC[C@H]2O[N+](=O)[O-])[C@@H]1CSCN1 [Compound 19, 2-O-[(4-L-Thiazolidinyl)carbonyl]-5-O-nitro-1,4:3,6-dianhydro-D-glucitol monohydrochloride] | > 100 |  |  |  |  | 40 |  |  | BPs (min), period of action (anesthetised dogs; dogs, 10 mg/kg i.v.): > 60 min; BPs, difference to base value (anesthetised dogs; dogs, 10 mg/kg i.v.): -35 mmHg; LVEDP (min), period of action (anesthetised dogs; dogs, 10 mg/kg i.v.): 0 min; LVEDP, difference to base value (anesthetised dogs; dogs, 10 mg/kg i.v.): 0,0 mmHg
CC(C)(C)OC(=O)N1CSC[C@H]1C(=O)N1CSC[C@H]1C(=O)N[C@H]1CO[C@H]2[C@@H]1OC[C@@H]2O[N+](=O)[O-] [Compound 77, 5-[[[(4R)-N-[(3-t-butoxycarbonyl-4-L-thiazolidinyl)carbonyl]-4-thiazolidinyl]carbonyl]amino]-5-deoxy-2-O-nitro-1,4:3,6-dianhydro-L-iditol] | 40 |  |  |  |  | 97 | > 180 | -35 | LVEDP (min), period of action (anesthetised dogs; dogs, 3 mg/kg i.d.): > 180 min; LVEDP, difference to base value (anesthetised dogs; dogs, 3 mg/kg i.d.): -2,0 mmHg
CC(=O)NCSC[C@H](N)C(=O)O[C@@H]1CO[C@H]2[C@@H]1OC[C@@H]2O[N+](=O)[O-] [Compound 27, S-[(Acetylamino)methyl]-L-cysteine ester of 2-O-nitro-1,4:3,6-dianhydro-D-glucitol monohydrochloride] | > 100 | > 90 | -15 | > 90 | -1,0 mmHg | 14 |  |  | 
CC(C)(C)OC(=O)N[C@@H](Cc1ccccc1)C(=O)N[C@H]1CO[C@H]2[C@@H]1OC[C@@H]2O[N+](=O)[O-] [Compound 11, N-[(t-Butoxy)carbonyl]-L-phenylalanine amide of 5-amino-5-deoxy-2-O-nitro-1,4:3,6-dianhydro-L-iditol] | 25 | > 30 | -10 | 0 | 0,0 mmHg | 100 |  |  | 
O=C(O[C@@H]1CO[C@H]2[C@@H]1OC[C@@H]2O[N+](=O)[O-])[C@@H]1CSCN1 [Compound 25, 5-O-[(4-L-Thiazolidinyl)carbonyl]-2-O-nitro-1,4:3,6-dianhydro-D-glucitol monohydrochloride] | > 100 |  |  |  |  | 35 |  |  | BPs (min), period of action (anesthetised dogs; dogs, 10 mg/kg i.d.): > 60 min; BPs, difference to base value (anesthetised dogs; dogs, 10 mg/kg i.d.): -30 mmHg; LVEDP (min), period of action (anesthetised dogs; dogs, 10 mg/kg i.d.): > 60 min; LVEDP, difference to base value (anesthetised dogs; dogs, 10 mg/kg i.d.): -3,0 mmHg
CC(C)(C)OC(=O)N1CSC[C@H]1C(=O)NCC(=O)O[C@H]1CO[C@H]2[C@@H]1OC[C@H]2O[N+](=O)[O-] [Compound 72, 2-O-[2-[[(3-t-butoxycarbonyl-4-L-thiazolidinyl)carbonyl]amino]-1-oxoethyl]-5-O-nitro-1,4:3,6-dianhydro-D-glucitol] | 64 |  |  |  |  | 67 |  |  | BPs (min), period of action (anesthetised dogs; dogs, 10 mg/kg i.v.): 0 min; BPs, difference to base value (anesthetised dogs; dogs, 10 mg/kg i.v.): 0 mmHg; LVEDP (min), period of action (anesthetised dogs; dogs, 10 mg/kg i.v.): 0 min; LVEDP, difference to base value (anesthetised dogs; dogs, 10 mg/kg i.v.): 0,0 mmHg
CC(C)[C@H](NC(=O)[C@@H]1CSCN1C(=O)OC(C)(C)C)C(=O)N[C@H]1CO[C@H]2[C@@H]1OC[C@@H]2O[N+](=O)[O-] [Compound 63, 5-[[2-[[(3-t-butoxycarbonyl-4-L-thiazolidinyl)carbonyl]amino]-1-((2S)-2-isopropyl)-oxoethyl]amino]-5-deoxy-2-O-nitro-1,4:3,6-dianhydro-L-iditol] | 70 | > 60 | -20 | 60 | -1,0 mmHg | 70 |  |  | 

More lines, main results first:

IC50 (thoracic aorta) [µM] | SMILES | BPs (min), period of action (anesthetised dogs; dogs, 3 mg/kg i.v.) [min] | BPs, difference to base value (anesthetised dogs; dogs, 3 mg/kg i.v.) [mmHg] | LVEDP (min), period of action (anesthetised dogs; dogs, 3 mg/kg i.v.) [min] | LVEDP, difference to base value (anesthetised dogs; dogs, 3 mg/kg i.v.) | Emax (thoracic aorta) [%] | BPs (min), period of action (anesthetised dogs; dogs, 3 mg/kg i.d.) [min] | BPs, difference to base value (anesthetised dogs; dogs, 3 mg/kg i.d.) [mmHg] | other results
20 | O=C(N[C@H]1CO[C@H]2[C@@H]1OC[C@@H]2O[N+](=O)[O-])[C@@H]1CSCN1C(=O)[C@@H]1CSCN1 [Compound 78, 5-[[[(4R)-N-[(4-L-thiazolidinyl)carbonyl]-4-thiazolidinyl]carbonyl]amino]-5-deoxy-2-O-nitro-1,4:3,6-dianhydro-L-iditol monohydrochloride] |  |  |  |  | 89 | 150 | -13 | LVEDP (min), period of action (anesthetised dogs; dogs, 3 mg/kg i.d.): 90 min; LVEDP, difference to base value (anesthetised dogs; dogs, 3 mg/kg i.d.): -1,0 mmHg
35 | O=C(N[C@H]1CO[C@H]2[C@@H]1OC[C@@H]2O[N+](=O)[O-])[C@@H]1CCCN1C(=O)[C@@H]1CSCN1 [Compound 70, 5-[[[(2S)-N-[(4-L-thiazolidinyl)carbonyl]-2-pyrrolidinyl]carbonyl]amino]-5-deoxy-2-O-nitro-1,4:3,6-dianhydro-L-iditol monohydrochloride] |  |  |  |  | 83 | > 90 | -30 | LVEDP (min), period of action (anesthetised dogs; dogs, 3 mg/kg i.d.): 0 min; LVEDP, difference to base value (anesthetised dogs; dogs, 3 mg/kg i.d.): 0,0 mmHg
53 | O=C(CNC(=O)[C@@H]1CSCN1)O[C@H]1CO[C@H]2[C@@H]1OC[C@H]2O[N+](=O)[O-] [Compound 73, 2-O-[2-[[(4-L-thiazolidinyl)carbonyl]amino]-1-oxoethyl]-5-O-nitro-1,4:3,6-dianhydro-D-glucitol monohydrochloride] | 60 | -15 | 60 | -2,0 mmHg | 66 |  |  | 
38 | O=C(CNC(=O)[C@@H]1CCCN1)N[C@H]1CO[C@H]2[C@@H]1OC[C@@H]2O[N+](=O)[O-] [Compound 49, 5-[[2-[[((2S)-2-pyrrolidinyl)carbonyl]amino]-1-oxoethyl]amino]-5-deoxy-2-O-nitro-1,4:3,6-dianhydro-L-iditol monohydrochloride] |  |  |  |  | 100 |  |  | BPs (min), period of action (anesthetised dogs; dogs, 1,1 mg/kg i.d.): > 240 min; BPs, difference to base value (anesthetised dogs; dogs, 1,1 mg/kg i.d.): -32 mmHg
55 | C[C@H](NC(=O)[C@@H]1CSCN1)C(=O)N[C@H]1CO[C@H]2[C@@H]1OC[C@@H]2O[N+](=O)[O-] [Compound 62, 5-[[2-[[(4-L-thiazolidinyl)carbonyl]amino]-1-((2S)-2-methyl)-oxoethyl]amino]-5-deoxy-2-O-nitro-1,4:3,6-dianhydro-L-iditol monohydrochloride] |  |  |  |  | 72 | > 30 | -35 | 
